Source: article PMC8668240, “GABAA Receptor Subunit Composition Drives Its Sensitivity to the Insecticide Fipronil” (Frontiers in Neuroscience, 2021)

Columns and labels:
Assay in all cases: two-electrode voltage clamp, Xenopus oocytes
Type in all cases: cell-based
α6β3 GABAAR (binary) [1] = biological target: T1, α6β3 GABAAR (binary) (Mus musculus, UniProt P16305+P63080)
T1 construct: gene Gabra6; full-length cDNAs, injected 1:1 in Xenopus oocyte nucleus; heteropentamer without third subunit

[2] = biological target: T2, α6β3δ GABAAR (extrasynaptic) (Mus musculus, UniProt P16305+P22933+P63080); conditions: read-out: IC50 (μM, ± SEM)
T2 construct: gene Gabra6; full-length cDNAs, injected 1:1:5 in Xenopus oocyte nucleus; heteropentamer
T2 sequence (P63080 26-473): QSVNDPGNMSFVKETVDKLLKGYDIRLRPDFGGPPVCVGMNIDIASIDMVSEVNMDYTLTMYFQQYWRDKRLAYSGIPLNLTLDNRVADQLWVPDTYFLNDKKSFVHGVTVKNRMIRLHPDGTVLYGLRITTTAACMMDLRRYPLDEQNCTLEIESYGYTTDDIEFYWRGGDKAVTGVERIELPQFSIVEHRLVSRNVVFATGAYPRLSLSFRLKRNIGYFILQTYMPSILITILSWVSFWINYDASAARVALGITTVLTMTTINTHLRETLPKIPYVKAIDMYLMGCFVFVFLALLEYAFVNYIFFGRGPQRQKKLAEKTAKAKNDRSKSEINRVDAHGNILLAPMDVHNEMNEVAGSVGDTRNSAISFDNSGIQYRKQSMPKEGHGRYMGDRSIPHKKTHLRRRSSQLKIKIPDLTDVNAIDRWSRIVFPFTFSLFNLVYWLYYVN
T2 sequence (P22933 25-449): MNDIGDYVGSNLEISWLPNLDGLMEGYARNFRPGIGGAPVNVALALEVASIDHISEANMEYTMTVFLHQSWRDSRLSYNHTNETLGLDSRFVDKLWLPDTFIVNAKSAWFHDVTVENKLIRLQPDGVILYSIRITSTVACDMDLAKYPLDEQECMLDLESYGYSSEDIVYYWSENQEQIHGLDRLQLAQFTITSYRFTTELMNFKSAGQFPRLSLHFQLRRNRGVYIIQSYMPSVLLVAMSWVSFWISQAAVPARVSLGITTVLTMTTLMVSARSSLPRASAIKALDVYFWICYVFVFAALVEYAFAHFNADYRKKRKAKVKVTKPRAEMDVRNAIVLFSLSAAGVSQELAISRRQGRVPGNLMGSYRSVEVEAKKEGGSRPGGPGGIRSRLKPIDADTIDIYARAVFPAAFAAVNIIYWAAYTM
T2 sequence (P16305 20-453): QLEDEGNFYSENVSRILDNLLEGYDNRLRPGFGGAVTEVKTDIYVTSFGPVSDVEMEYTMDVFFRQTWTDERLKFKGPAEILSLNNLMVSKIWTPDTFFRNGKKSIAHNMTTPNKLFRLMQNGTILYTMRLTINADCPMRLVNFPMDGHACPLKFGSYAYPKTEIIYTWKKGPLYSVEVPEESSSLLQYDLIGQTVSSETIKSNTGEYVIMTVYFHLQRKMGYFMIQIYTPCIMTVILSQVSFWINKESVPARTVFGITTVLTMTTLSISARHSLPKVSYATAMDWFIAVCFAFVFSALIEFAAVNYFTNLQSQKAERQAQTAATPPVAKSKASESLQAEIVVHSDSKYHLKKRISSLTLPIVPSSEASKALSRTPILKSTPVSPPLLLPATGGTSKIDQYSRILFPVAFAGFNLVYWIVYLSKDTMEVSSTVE
Excerpt: two-electrode voltage clamp, Xenopus oocytes on α6β3δ GABAAR (extrasynaptic)

α6β3 GABAAR (binary) [3] = biological target: T1, α6β3 GABAAR (binary); conditions: read-out: IC50 (μM, ± SEM)
Excerpt: two-electrode voltage clamp, Xenopus oocytes on α6β3 GABAAR (binary)

β3 homopentamer = biological target: T3, β3 homopentamer (Mus musculus, UniProt P63080); conditions: current through spontaneously open β3; 1, 10 and 100 μM FPN; no GABA; positive modulator
T3 construct: gene Gabrb3; full-length cDNA in pGW1 (= pRK5), expressed in Xenopus oocytes; homopentamer
T3 sequence (P63080 26-473): as the sequence (P63080 26-473) above

T1 sequence (P16305 20-453): as the sequence (P16305 20-453) above
T1 sequence (P63080 26-473): as the sequence (P63080 26-473) above

Row | SMILES | EC50 (α6β3 GABAAR (binary) [1]) | IC50 [2] | IC50 (α6β3 GABAAR (binary) [3]) | two-electrode voltage clamp, Xenopus oocytes (β3 homopentamer)
1 | NCCCC(=O)O [GABA] | 430 ± 10 nM |  |  | 
2 | N#Cc1nn(-c2c(Cl)cc(C(F)(F)F)cc2Cl)c(N)c1[S+]([O-])C(F)(F)F (stereo not shown) [fipronil] |  | 20.7 ± 2.6 µM | 2.4 ± 0.4 µM | The current density increases as a function of FPN concentrations
